Measured values published in publication PMC7756341, “Liposomal FRET Assay Identifies Potent Drug‐Like Inhibitors of the Ceramide Transport Protein (CERT)” (Chemistry (Weinheim an Der Bergstrasse, Germany), 2020).
“And” between values parts separate entries of the source, which are not always exact repeats. Identical values can stand only once.

How the values were obtained:
[1] = tested on: HeLa cells; assay: Cellular localization of BODIPY-ceramide by confocal microscopy; type: cell-based; settings: 10 µM inhibitor, 2 h
Protocol: 5.1 Cellular Localization of BODIPY-Ceramide
HeLa cells were seeded in 8 well chamber slides (ibidi µ-Slide 8 Well) in RPMI 1640 medium supplemented with 10% (v/v) heat‐inactivated FCS, 1 mM sodium pyruvate and 2 mM L-glutamine at 37 °C and 5% (v/v) CO2 in a humidified incubator. The day after, cells were incubated with inhibitors for 2 h at a concentration of 10 µM or left untreated by replacing the medium with fresh medium supplemented with the respective inhibitors. After 2 h of incubation, BODIPY FL C5-ceramide (Thermo Fisher) was added to a final concentration of 0,25 µM and imaging was immediately done using an LSM 780 laser scanning confocal microscope (Carl Zeiss). No additional wash steps were performed. After 1 h of incubation, DNA was counterstained using Hoechst 33342. For quantification of BODIPY-Ceramide trafficking, cells were transfected with pECFP-GalT the day before inhibitor incubation for the expression of an eCFP fusion of the human galactosyltransferase (GalT; amino acids 1-60), which localizes at the Golgi apparatus. After incubation with the respective inhibitors (see above), cells were imaged at 30 min post addition of BODIPY FL C5-ceramide. Mean BODIPY intensities of regions of interest surrounding eCFP-GalT-positive Golgi stacks were measured (40 cells per biological replicate, 4 biological replicates in total) using ImageJ software (Rasband, W.S., ImageJ, U. S. National Institutes of Health, Bethesda, Maryland, USA, https://imagej.nih.gov/ij/, 1997-2018) and divided by the total BODIPY intensity detected in the field of view. Quantification (Fig 10B) is expressed as normalized intensity ratio (GA/total).
Figure S10. A Uptake of BODIPY FL C5-ceramide to HeLa cells assessed by normalized fluorescence intensity B Distribution of BODIPY FL C5-ceramide by normalized fluorescence […]
(§1) (1 picture or pasted object on this page, not shown here)
Figure S11. BODIPY-Ceramide trafficking. Confocal images showing distribution of BODIPY FL C5-ceramide (green) and Golgi apparatus costaining (eCFP-GalT; blue) in HeLa cells pretreated with 10 µM of respective inhibitors or left untreated. Figures show representative images (n = 4 biological replicates with 40 cells per biological replicate); scale bars, 10 µm.

[2] = tested on: HeLa cells; assay: Sphingolipid content of treated HeLa cells by quantitative mass spectrometry; type: cell-based; settings: for Cer16 / Cer18 / Cer20 / Cer22 / Cer24 / Cer24:1 / Cer total / S1P / SM16 / SM18 / SM20 / SM22 / SM24 / SM24:1 / SM total / Sph / ratio total SM/Cer: HeLa, 42h, single replicates; for Cer16 / Cer18 / Cer20 / Cer22 / Cer24 / Cer24:1 / Cer total / S1P / SM16 / SM18 / SM20 / SM22 / SM24 / SM24:1 / SM total / Sph: 500.000 cells per sample
Protocol: 5.2 Cellular experiment for lipidomic analysis
Hela cells were cultured in six well plates (177000 cells per well) under standard growth conditions (DMEM with 4mM L-glutamine, 10% FBS, 1% Penicillin-Streptomycin; CO2 incubator with […]
37°C, 5% CO2). […]
After incubation, […]
the adherent cells were washed twice with ice-cold PBS and harvested by treatment with trypsin.
Cells were counted using a Countess II cell counter ( Invitrogen) and adjusted to 500.000 cells per sample. Each sample was then treated as described below.
6. Details for experimental lipidomics
Cells were subjected to lipid extraction using 1.5 mL methanol/chloroform (2:1, v:v) as described. The extraction solvent contained C17-ceramide (Cer17) and C16 -d31-sphingomyelin (d31-SM16) (both Avanti Polar Lipids, Alabaster, USA) as internal standards. Chromatographic separations were achieved on a 1260 Infinity HPLC (Agilent Technologies, Waldbronn, Germany) equipped with a Poroshell 120 EC-C8 column (3.0 × 150 mm, 2.7 µm; Agilent Technologies). A mobile phase system consisting of water (solvent A) and acetonitrile/methanol (1:1, v:v; solvent B), both acidified with 0.1% formic acid, was used for gradient elution at an initial composition of 40:60 (A:B, v:v) and a flow rate of 0.5 mL/min. MS/MS analyses were carried out using a 6490 triple-quadrupole mass spectrometer (Agilent Technologies) operating in the positive electrospray ionization mode (ESI+). The following ion source parameters were set: sheath gas temperature, 375 °C; sheath gas flow, 12 L/min of nitrogen; nebulizer pressure, 30 psi; drying gas temperature, 200 °C; drying gas flow, 15 L/min of nitrogen; capillary voltage, 4000 V; nozzle voltage, 1500 V; iFunnel high pressure RF voltage, 150 V and iFunnel low pressure RF voltage, 60 V. The following mass transitions were recorded (collision energies of 25 eV for all transitions): ceramides: m/z […]
with MassHunter Software (Agilent Technologies). Significance of differences between two samples was calculated by student’s t -test. Asterisks indicate significant differences between treated and untreated samples: * p<0.05; ** p<0.01; *** p<0.005.
Table S1. Sphingolipid content of treated cells.
as §1

Structure (SMILES): O=C(NC1CCN(CCCCC2(C(=O)NCC(F)(F)F)c3ccccc3-c3ccccc32)CC1)c1ccccc1-c1ccc(C(F)(F)F)cc1 [8E8, lomitapide]
- effect on intracellular distribution of BODIPY-Cer [1]: significantly influenced
- effect on sphingomyelin at 5 μM ([2]; HeLa cells, 5 μM): drastic reduction
- effect on total sphingomyelin ([2]; HeLa cells, 48 hours, serum-reduced medium): dose‐dependent reduction
- potency on relation of total sphingomyelin to ceramide compared to HPA-12 ([2]; HeLa cells, all concentrations): increased potency
- Cer16 ([2]; 1 µM): 66,02 pmol/sample and 57,09 pmol/sample and 60,15 pmol/sample
- Cer18 ([2]; 1 µM): 7,66 pmol/sample and 6,67 pmol/sample and 6,95 pmol/sample
- Cer20 ([2]; 1 µM): 2,25 pmol/sample and 1,77 pmol/sample and 2,84 pmol/sample
- Cer22 ([2]; 1 µM): 14,47 pmol/sample and 13,05 pmol/sample and 13,35 pmol/sample
- Cer24 ([2]; 1 µM): 34,96 pmol/sample and 30,93 pmol/sample and 30,90 pmol/sample
- Cer24:1 ([2]; 1 µM): 73,09 pmol/sample and 65,48 pmol/sample and 68,22 pmol/sample
- Cer total ([2]; 1 µM): 198,45 pmol/sample and 178,06 pmol/sample and 179,34 pmol/sample
- S1P ([2]; 1 µM): 1,12 pmol/sample and 1,00 pmol/sample and 0,85 pmol/sample
- SM16 ([2]; 1 µM): 1825,61 pmol/sample and 1823,48 pmol/sample and 1739,12 pmol/sample
- SM18 ([2]; 1 µM): 59,37 pmol/sample and 58,79 pmol/sample and 52,57 pmol/sample
- SM20 ([2]; 1 µM): 20,60 pmol/sample and 20,35 pmol/sample and 17,81 pmol/sample
- SM22 ([2]; 1 µM): 115,26 pmol/sample and 124,65 pmol/sample and 105,99 pmol/sample
- SM24 ([2]; 1 µM): 173,05 pmol/sample and 183,46 pmol/sample and 158,17 pmol/sample
- SM24:1 ([2]; 1 µM): 817,85 pmol/sample and 842,40 pmol/sample and 760,17 pmol/sample
- SM total ([2]; 1 µM): 3011,74 pmol/sample and 3053,13 pmol/sample and 2833,83 pmol/sample
- Sph ([2]; 1 µM): 3,57 pmol/sample and 3,81 pmol/sample and 3,42 pmol/sample
- ratio total SM/Cer ([2]; 1 µM): 16,8 and 15,4 and 15,9
- Cer16 ([2]; 2.5 µM): 74,51 pmol/sample and 82,98 pmol/sample and 79,41 pmol/sample
- Cer18 ([2]; 2.5 µM): 8,90 pmol/sample and 10,02 pmol/sample and 9,50 pmol/sample
- Cer20 ([2]; 2.5 µM): 2,09 pmol/sample and 2,26 pmol/sample and 2,11 pmol/sample
- Cer22 ([2]; 2.5 µM): 14,83 pmol/sample and 17,07 pmol/sample and 15,69 pmol/sample
- Cer24 ([2]; 2.5 µM): 32,62 pmol/sample and 36,00 pmol/sample and 36,33 pmol/sample
- Cer24:1 ([2]; 2.5 µM): 74,15 pmol/sample and 79,98 pmol/sample and 77,75 pmol/sample
- Cer total ([2]; 2.5 µM): 207,10 pmol/sample and 228,30 pmol/sample and 220,79 pmol/sample
- S1P ([2]; 2.5 µM): 0,75 pmol/sample and 1,06 pmol/sample and 1,09 pmol/sample
- SM16 ([2]; 2.5 µM): 1630,84 pmol/sample and 1823,72 pmol/sample and 1666,50 pmol/sample
- SM18 ([2]; 2.5 µM): 53,11 pmol/sample and 57,73 pmol/sample and 55,13 pmol/sample
- SM20 ([2]; 2.5 µM): 19,44 pmol/sample and 21,11 pmol/sample and 18,70 pmol/sample
- SM22 ([2]; 2.5 µM): 103,91 pmol/sample and 113,22 pmol/sample and 105,74 pmol/sample
- SM24 ([2]; 2.5 µM): 157,53 pmol/sample and 168,83 pmol/sample and 156,81 pmol/sample
- SM24:1 ([2]; 2.5 µM): 722,25 pmol/sample and 731,59 pmol/sample and 797,90 pmol/sample
- SM total ([2]; 2.5 µM): 2725,14 pmol/sample and 2696,43 pmol/sample and 2982,51 pmol/sample
- Sph ([2]; 2.5 µM): 3,63 pmol/sample and 3,39 pmol/sample and 3,50 pmol/sample
- ratio total SM/Cer ([2]; 2.5 µM): 12,3 and 13,0 and 13,1
- Cer16 ([2]; 5 µM): 89,79 pmol/sample and 129,48 pmol/sample and 69,03 pmol/sample
- Cer18 ([2]; 5 µM): 7,26 pmol/sample and 11,79 pmol/sample and 5,12 pmol/sample
- Cer20 ([2]; 5 µM): 1,69 pmol/sample and 2,84 pmol/sample and 1,31 pmol/sample
- Cer22 ([2]; 5 µM): 12,62 pmol/sample and 18,55 pmol/sample and 9,43 pmol/sample
- Cer24 ([2]; 5 µM): 22,56 pmol/sample and 31,76 pmol/sample and 18,74 pmol/sample
- Cer24:1 ([2]; 5 µM): 66,19 pmol/sample and 87,40 pmol/sample and 47,19 pmol/sample
- Cer total ([2]; 5 µM): 200,11 pmol/sample and 281,82 pmol/sample and 150,81 pmol/sample
- S1P ([2]; 5 µM): 0,37 pmol/sample and 0,42 pmol/sample and 0,53 pmol/sample
- SM16 ([2]; 5 µM): 450,01 pmol/sample and 691,68 pmol/sample and 345,52 pmol/sample
- SM18 ([2]; 5 µM): 25,94 pmol/sample and 35,37 pmol/sample and 18,65 pmol/sample
- SM20 ([2]; 5 µM): 8,48 pmol/sample and 11,39 pmol/sample and 5,85 pmol/sample
- SM22 ([2]; 5 µM): 36,80 pmol/sample and 52,48 pmol/sample and 26,91 pmol/sample
- SM24 ([2]; 5 µM): 50,34 pmol/sample and 70,92 pmol/sample and 33,38 pmol/sample
- SM24:1 ([2]; 5 µM): 200,60 pmol/sample and 298,06 pmol/sample and 137,99 pmol/sample
- SM total ([2]; 5 µM): 772,16 pmol/sample and 1159,90 pmol/sample and 568,29 pmol/sample
- Sph ([2]; 5 µM): 3,46 pmol/sample and 3,80 pmol/sample and 3,91 pmol/sample
- ratio total SM/Cer ([2]; 5 µM): 3,9 and 4,1 and 3,8
